Data taken from patent US20130196362A1, “DIARYLAMINE-BASED FLUOROGENIC PROBES FOR DETECTION OF PEROXYNITRITE” (THE UNIVERSITY OF HONG KONG, priority 2012, published 2013).

Tests used:
[1] = Reactivity of probe toward different ROS and RNS (selectivity) in phosphate buffer; conditions: for increase in fluorescence intensity with peroxynitrite versus other ROS and RNS: OCl-, pH 7.4
Procedure: (§1) FIG. 1A depicts fluorescence spectra showing fluorescence intensities of compound 2 after treatment with different amounts of peroxynitrite. […] The spectra were acquired by dissolving Compound 2 in 0.1 M phosphate buffer at pH 7.4 to form a 1 μM solution, with excitation and emission spectra at 510 nm and 530 nm, respectively. The concentration of highly reactive oxygen species hydroxyl radical (.OH), hypochlorous acid (^−OCl), and peroxynitrite (ONOO^−) is 1 μM. The concentration of ^1O2, O2.^−, NO, ROO. and H2O2 is 10 μM.
(§2) FIG. 2A depicts fluorescence spectra showing fluorescence intensities of Compound 11 after treatment with different amounts of peroxynitrite. […] The spectra were acquired by dissolving […] in 0.1M phosphate buffer at pH 7.4 to form a 2 μM solution, with excitation and emission at 547 nm and 570 nm, respectively. The concentration of highly reactive oxygen species hydroxyl radical (.OH), hypochlorous acid (^−OCl), and peroxynitrite (ONOO^−) is 2 μM. The concentration of ^1O2, O2.^−, NO, ROO. and H2O2 is 20 μM.
(§3) FIG. 3A depicts fluorescence spectra showing fluorescence intensities of Compound 22 after treatment with different amounts of peroxynitrite. […] The spectra were acquired by dissolving Compound 22 in 0.1M phosphate buffer at pH 7.4 to form a 5 μM solution, with excitation at 600 nm and emission at 617 nm, respectively. The concentration of highly reactive oxygen species hydroxyl radical (.OH), hypochlorous acid (^−OCl), and peroxynitrite (ONOO^−) is 5 μM. The concentration of ^1O2, O2.^−, NO, ROO. and H2O2 is 50 μM.
as §3, with “4A” for “3A”, “25” for “22”, “650” for “600”, “665” for “617”
(§4) FIG. 5A depicts fluorescence spectra showing fluorescence intensities of Compound 30 after treatment with different amounts of peroxynitrite. […] The spectra were acquired by dissolving Compound 30 in 0.1 M phosphate buffer at pH 7.4 and exciting at 515 nm. The concentration of highly reactive oxygen species hypochlorous acid (^−OCl) and peroxynitrite (ONOO^−) is 1 μM. The concentration of hydroxyl radical (.OH) is 1 μM or 10 μM. The concentration of ^1O2, O2.^−, NO, ROO. and H2O2 is 10 μM or 100 μM. (see figure for exact concentrations of certain ROS and RNS)
(§5) The reactivity of Compound 2 is compared toward different reactive oxygen species (ROS) and reactive nitrogen species (RNS). Specifically, the 1 μM solution of compound 2 is treated with various ROS and RNS. The concentration of highly reactive oxygen species (hydroxyl radical (.OH), hypochlorous acid (^−OCl), and peroxynitrite (ONOO^−)) is 1 μM. The concentration of ^1O2, O2.^−, NO, ROO. and H2O2 is 10 μM.
as §5, with “Compound 11” for “Compound 2”, “compared with” for “compared toward”, “the 2” for “the 1”, “compound 11” for “compound 2”, “is 2” for “is 1”, “is 20” for “is 10”
The reactivity of Compound 22 is compared with different reactive oxygen species (ROS) and reactive nitrogen species (RNS). Specifically, the 5 μM solution of compound 22 is treated with various ROS and RNS. The concentration of highly reactive oxygen species (hydroxyl radical (.OH), hypochlorous acid (^−OCl), and peroxynitrite (ONOO^−)) is 5 μM. The concentration of ^1O2, O2.^−, NO, ROO. and H2O2 is 50 μM. […]

[2] = Fluorescence response of probe to increasing peroxynitrite in phosphate buffer
Procedure: as §1, §2, §3
as §3, with “4A” for “3A”, “25” for “22”, “650” for “600”, “665” for “617”
as §4
Specifically, Compound 2 is dissolved in 0.1 M phosphate buffer at pH 7.4 to form a 1 μM solution, with excitation and emission spectra at 510 nm and 530 nm, respectively. The 1 μM solution of Compound 2 is treated with peroxynitrite at various concentrations.
Specifically, Compound 11 is dissolved in 0.1 M phosphate buffer at pH 7.4 to form a 2 μM solution, with excitation and emission spectra at 547 nm and 570 nm, respectively. The 2 μM solution of Compound 11 is treated with peroxynitrite at various concentrations.
Specifically, Compound 22 is dissolved in 0.1 M phosphate buffer at pH 7.4 to form a 5 μM solution, with excitation and emission spectra at 600 nm and 617 nm, respectively. The 5 μM solution of Compound 22 is treated with peroxynitrite at various concentrations. […]

[3] = system: SH-SY5Y neuroblastoma cells; assay: Fluorescent microscopy of SH-SY5Y cells with or without SIN-1; type: cell-based, Human; conditions: incubated 1 hr; for fluorescence in the absence of stimulants: washed with PBS, no SIN-1; for fluorescence after treatment with stimulants: with SIN-1
Procedure: SH-SY5Y cells were co-stained with different compounds with or without SIN-1 for 1 h, and then washed quickly with PBS for 3 times and maintained in non-phenol red medium. Left: no SIN-1 treatment; Right: with SIN-1 treatment.
SH-SY5Y cells were co-stained with different compounds with or without SIN-1 for 1 h, and then washed quickly with PBS for 3 times and maintained in non-phenol red medium. Left: no SIN-1 treatment; Middle: with 1 mM SIN-1 treatment; Right: with 100 μM SIN-1 treatment.
SH-SY5Y cells were co-stained with different compounds with or without SIN-1 for 1 h, and then washed quickly with PBS for 3 times and maintained in non-phenol red medium. Left: no SIN-1 treatment; Middle: with 100 μM SIN-1 treatment; Right: with 200 μM SIN-1 treatment.
(§6) Human SH-SY5Y neuroblastoma cells (ATCC, USA) were maintained in high glucose Dulbecco's Modified Eagle Medium (DMEM, Hyclone) supplemented with 10% fetal bovine serum (FBS, Gibco), 1% penicillin/streptomycin (PS, Gibco) and 1% L-glutamine (Gibco). Mouse C17.2 neural progenitor cells (ATCC, USA) were maintained in high glucose Dulbecco's Modified Eagle Medium supplemented with 8% fetal bovine serum (Gibco), 4% horse serum (Gibco), 1% penicillin/streptomycin and 1% L-glutamine. Mouse RAW264.7 macrophage cells (ATCC, USA) were maintained in high glucose Dulbecco's Modified Eagle Medium (DMEM, Hyclone) supplemented with 10% fetal bovine serum (Gibco), 1% penicillin/streptomycin (Gibco) and 1% L-glutamine.
(§7) Generally, cells were grown to confluence prior to experiment. Cells were incubated with Compounds) 6, 7, 8, 14, 20, 21, 24, 27, and 32, respectively for 1 hr, and then washed three times with PBS buffer.

[4] = system: C17.2 neural progenitor cells; assay: Fluorescent microscopy of C17.2 cells with or without SIN-1; type: cell-based, Mouse; conditions: for fluorescence in the absence of stimulants: no SIN-1; for fluorescence after treatment with stimulants: with SIN-1
Procedure: The cells were incubated with Compound 20 or 21 at a concentration of 1 μM, and then treated with (Lower) or without (Upper) SIN-1.
The cells were incubated with Compound 32 at a concentration of 5 μM.
as §6, §7

[5] = system: RAW264.7 macrophage cells; assay: Fluorescent microscopy of RAW264.7 macrophages stimulated with LPS and IFN-γ; type: cell-based, Mouse; conditions: 500 nM
Procedure: The macrophage cells were incubated with Compound 27 at a concentration of 500 nM. Upper: Control; Lower: The macrophages were stimulated with LPS and IFN-γ for 14 hr. Left: Nuclear staining with Hoechst; Middle: Compound 27; Right: Merged.
as §6, §7

With `CN(c1ccc(O)cc1)c1ccc2c(-c3ccc(C(=O)N(CC(=O)O)CC(=O)O)cc3C(=O)O)c3ccc(=O)cc-3oc2c1` [Compound 2] the “increase in fluorescence intensity with peroxynitrite versus other ROS and RNS” value (shortened to “increase in fluorescence intensity”) ([1]; 1 μM probe, .OH, ONOO- 1 μM, 1O2, O2.-, NO, ROO., H2O2 10 μM) was “much higher increase in fluorescence intensity” and the “fluorescence intensity after treatment with peroxynitrite at various concentrations” value (from here on “fluorescence intensity after treatment”) ([2]; 1 μM solution in 0.1 M phosphate buffer pH 7.4, excitation 510 nm, emission 530 nm) was “increases with increasing concentration of peroxynitrite”.

In the case of `COC(=O)CN(CC(=O)OC)C(=O)c1ccc2c(c1)C(=O)OC21c2ccc(OC(C)=O)cc2Oc2cc(N(C)c3ccc(O)cc3)ccc21` (centres unmarked) [Compound 7], the “fluorescence in the absence of stimulants” value (“fluorescence in the absence” for short) [3] was “very weak fluorescence” and the “fluorescence after treatment with stimulants” value (shortened to “fluorescence after treatment”) [3] was “strongly induced”.

In the case of `COC(=O)CCN(CCC(=O)OC)C(=O)c1ccc2c(c1)C(=O)OC21c2ccc(OC(C)=O)cc2Oc2cc(N(C)c3ccc(O)cc3)ccc21` (centres unmarked) [Compound 8], the “fluorescence in the absence” value [3] was “very weak fluorescence” and the “fluorescence after treatment” value [3] was “strongly induced”.

With `CC1CC(C)(C)[N+](CCCC(=O)O)=c2cc3c(cc21)=C(c1ccccc1C(=O)O)c1cc(Cl)c(N(C)c2ccc(O)cc2)cc1O3` (centres unmarked) [Compound 11] the “increase in fluorescence intensity” value ([1]; 2 μM probe, .OH, ONOO- 2 μM, 1O2, O2.-, NO, ROO., H2O2 20 μM) was “much higher increase in fluorescence intensity” and the “fluorescence intensity after treatment” value ([2]; 2 μM solution in 0.1 M phosphate buffer pH 7.4, excitation 547 nm, emission 570 nm) was “increases with increasing concentration of peroxynitrite”.

With `CC[N+]1=c2cc3c(cc2C(C)CC1(C)C)=C(c1ccc(CCl)cc1C)c1ccc(N(C)c2ccc(O)cc2)cc1O3` (centres unmarked) [Compound 20] the “fluorescence in the absence” value [4] was “very weak fluorescence” and the “fluorescence after treatment” value [4] was “strongly induced”.

With `CC[N+]1=c2cc3c(cc2C(C)CC1(C)C)=C(c1ccc(C)cc1C)c1ccc(N(C)c2ccc(O)cc2)cc1O3` (centres unmarked) [Compound 21] the “fluorescence in the absence” value [4] was “very weak fluorescence” and the “fluorescence after treatment” value [4] was “strongly induced”.

In the case of `Cc1cc(C(=O)O)ccc1C1=C2C=CC(=O)C=C2[Si](C)(C)c2cc(N(C)c3ccc(O)cc3)ccc21` [Compound 22], the “increase in fluorescence intensity” value ([1]; 5 μM probe, ex 600/em 617 nm, .OH, ONOO- 5 μM, 1O2, O2.-, NO, ROO., H2O2 50 μM) was “much higher increase in fluorescence intensity” and the “fluorescence intensity after treatment” value ([2]; 5 μM solution in 0.1 M phosphate buffer pH 7.4, excitation 600 nm, emission 617 nm) was “increases with increasing concentration of peroxynitrite”.

In the case of `COC(=O)CN(CC(=O)OC)C(=O)c1ccc(C2=C3C=CC(=O)C=C3[Si](C)(C)c3cc(N(C)c4ccc(O)cc4)ccc32)c(C)c1` [Compound 24], the “fluorescence in the absence” value [3] was “very weak fluorescence” and the “fluorescence after treatment” value [3] was “strongly induced”.

With `CC[N+]1=c2cc3c(cc2C(C)CC1(C)C)=C(c1ccc(C(=O)O)cc1C)c1ccc(N(C)c2ccc(O)cc2)cc1[Si]3(C)C` (centres unmarked) [Compound 25] the “increase in fluorescence intensity” value ([1]; 5 μM probe, ex 650/em 665 nm, .OH, ONOO- 5 μM, 1O2, O2.-, NO, ROO., H2O2 50 μM) was “much higher increase in fluorescence intensity” and the “fluorescence intensity after treatment” value ([2]; 5 μM solution in 0.1 M phosphate buffer pH 7.4, excitation 650 nm, emission 665 nm) was “increases with increasing concentration of peroxynitrite”.

For `CC[N+]1=c2cc3c(cc2C(C)CC1(C)C)=C(c1ccc(C(=O)N(CC(=O)OC)CC(=O)OC)cc1C)c1ccc(N(C)c2ccc(O)cc2)cc1[Si]3(C)C` (centres unmarked) [Compound 27], the “fluorescence after treatment” value ([5]; LPS and IFN-γ for 14 hr) was “strongly induced” and the “fluorescence in the absence” value ([5]; control) was “very weak fluorescence”.

With `CN(c1ccc(O)cc1)c1ccc2c(-c3ccccc3C(=O)N3CCN(C(=O)CCCC[P+](c4ccccc4)(c4ccccc4)c4ccccc4)CC3)c3ccc(=O)cc-3oc2c1` [Compound 30] the “increase in fluorescence intensity” value ([1]; 1 μM solution of compound 30, ex 515 nm, em 540 nm, ONOO- 1 μM, .OH 1 or 10 μM, others 10 or 100 μM) was “sensitively and selectively detects peroxynitrite”, the emission maximum ([1]; 0.1 M phosphate buffer pH 7.4, exciting at 515 nm) was 540 nm and the “fluorescence intensity after treatment” value ([2]; 1 μM solution in 0.1 M phosphate buffer pH 7.4, excited at 515 nm) was “increases with increasing concentration of peroxynitrite”.
